This note sets out measurements from ChEMBL document CHEMBL1152190, “Synthesis of spiro-1,2-dioxolanes and their activity against Plasmodium falciparum” (Bioorg Med Chem Lett, 2008).

Activity calls are given as the source filed them. The calls are words filed in the database; no cut-off is given here.

The subject of one experiment is Heme. Briefly: Inhibition of heme crystallization by parasite-independent assay. It counts as functional.
The test system of experiment [1] is Plasmodium falciparum. Briefly: Antimalarial activity as reduced parasitaemia after 72 hrs against chloroquine-resistant Plasmodium falciparum Dd2 in human erythrocytes by DAPI stain. It counts as functional, organism-based. Conditions: Dd2, 72 h.
Experiment [2] concerns Plasmodium falciparum. The experiment can be described thus: Antimalarial activity as reduced parasitaemia after 72 hrs against chloroquine-sensitive Plasmodium falciparum 3D7 in human erythrocytes by DAPI stain. To be noted: 3D7, 72 h. Type of experiment: functional, organism-based.
For experiment [3], the system named is Plasmodium falciparum. Briefly: Antimalarial activity as reduced parasitaemia after 72 hrs against chloroquine-resistant Plasmodium falciparum 106/1 in human erythrocytes by DAPI stain. Type of experiment: functional, organism-based. To be noted: 106/1, 72 h.
The test system of experiment [4] is Plasmodium falciparum. Briefly: Antimalarial activity as reduced parasitaemia after 72 hrs against chloroquine-resistant Plasmodium falciparum FCB in human erythrocytes by DAPI stain. It counts as functional, organism-based.
Experiment [5] deals with Plasmodium falciparum. The experiment can be described thus: Antimalarial activity as reduced parasitaemia after 72 hrs against chloroquine-resistant Plasmodium falciparum 7G8 in human erythrocytes by DAPI stain. It counts as functional, organism-based. Conditions: 7G8, 72 h.
Experiment [6] concerns Plasmodium falciparum. The experiment can be described thus: Antimalarial activity against Plasmodium falciparum NF54. Type of experiment: functional, organism-based.
Experiment [7] relates to Plasmodium falciparum. The experiment can be described thus: Antimalarial activity against Plasmodium falciparum K1. It counts as functional, organism-based.

As to `CC1CCCC2(C1)CC(C)(CCOCc1ccccc1)OO2` (mixture of isomers), the result in the experiment with Heme was inactive. The EC50 was 151 nM in the experiment on Plasmodium falciparum [1] and 92 nM in the experiment on Plasmodium falciparum [2].

For the compound `CC1(CC(=O)NCC2C3CC4CC(C3)CC2C4)CC2(CCCCC2)OO1` (stereo unspecified), the result in the experiment on Heme was inactive. Moreover, the EC50 in the experiment with Plasmodium falciparum [1] amounted to 57 nM; with Plasmodium falciparum [2] it was 81 nM.

Take `C[C@@H]1CC[C@H]2[C@@H](C)C(=O)O[C@@H]3O[C@@]4(C)CC[C@@H]1[C@]32OO4` [ARTEMISININ]: the EC50 in the experiment on Plasmodium falciparum [3] is 13 nM; with Plasmodium falciparum [4] it was 8 nM; in the experiment on Plasmodium falciparum [5], 48 nM; with Plasmodium falciparum [1], 4 nM; in the experiment with Plasmodium falciparum [2], 4 nM.

For `CC1CCCC2(C1)CC(C)(CC(=O)O)OO2` (mixture of isomers), the EC50 in the experiment with Plasmodium falciparum [1] and with Plasmodium falciparum [2] was greater than 1000 nM each time.

With `COCCC1(C)CC2(CCCC(C)C2)OO1` (mixture of isomers), in the experiment on Heme, the outcome was inactive. Further, the results for the EC50 with Plasmodium falciparum [1] and in the experiment with Plasmodium falciparum [2] were 62 nM and 69 nM, respectively.

`CC1(CCOCc2ccccc2)CC2(CCC(C(C)(C)C)CC2)OO1` (mixture of isomers): the outcome in the experiment on Heme was inactive. The EC50 turned out to be 74 nM in the experiment with Plasmodium falciparum [1] and 86 nM in the experiment on Plasmodium falciparum [2].

`C1CCC2(CC1)CC1(OO2)C2CC3CC(C2)CC1C3` (stereo unspecified): the EC50 with Plasmodium falciparum [6] and with Plasmodium falciparum [7] was greater than 2000 nM in each case. Moreover, in the experiment on Heme, the result was inactive.

On to `C1CCC2(CC1)OOC1(O2)C2CC3CC(C2)CC1C3` (stereo unspecified), for which the concentration for a half-maximal effect (EC50) with Plasmodium falciparum [6] amounted to 5.3 nM; in the experiment on Plasmodium falciparum [7] it was 3.67 nM.

With `CCNC(=O)CC1(C)CC2(CCCCC2)OO1` (stereo unspecified), the EC50 with Plasmodium falciparum [3] was 142 nM; with Plasmodium falciparum [4] it was 356 nM; with Plasmodium falciparum [5] it was 83 nM; in the experiment on Plasmodium falciparum [1], 99 nM; in the experiment on Plasmodium falciparum [2], 485 nM.

Take `C1CCC2(CC1)CC1(CCCCC1)OO2`: the EC50 in the experiment with Plasmodium falciparum [6] is 523 nM; with Plasmodium falciparum [7], 195 nM.

As for `CC1(CC(=O)NCCNc2ccnc3cc(Cl)ccc23)CC2(CCCCC2)OO1` (stereo unspecified), the EC50 was 22 nM in the experiment with Plasmodium falciparum [3]; 16 nM in the experiment with Plasmodium falciparum [4]; 8 nM in the experiment on Plasmodium falciparum [5]; 6 nM with Plasmodium falciparum [1]; 5 nM with Plasmodium falciparum [2]. Also, the outcome in the experiment on Heme was inactive.

On to `CCN(CC)CCCC(C)Nc1ccnc2cc(Cl)ccc12` (stereo unspecified) [CHLOROQUINE], for which the EC50 with Plasmodium falciparum [3] came out at 14 nM; with Plasmodium falciparum [4], 52 nM; in the experiment on Plasmodium falciparum [5], 46 nM; in the experiment with Plasmodium falciparum [1], 66 nM; in the experiment on Plasmodium falciparum [2], 7 nM.

`NCCNc1ccnc2cc(Cl)ccc12`: in the experiment on Heme, the outcome was inactive. Further, the EC50 was 155 nM in the experiment on Plasmodium falciparum [1] and 57 nM in the experiment with Plasmodium falciparum [2].

On to `CC1CCCC2(C1)CC(C)(CCO)OO2` (mixture of isomers), for which, in the experiment with Heme, the result was inactive. Also, the EC50 was 149 nM in the experiment with Plasmodium falciparum [1] and 241 nM in the experiment with Plasmodium falciparum [2].

For `CC1CCC2(CC1)CC(C)(CCOCc1ccccc1)OO2` (mixture of isomers), in the experiment with Heme, the result was inactive. Moreover, the figures for the EC50 with Plasmodium falciparum [1] and in the experiment on Plasmodium falciparum [2] were 59 nM and 545 nM, respectively.

Turning to `CC1(CC(=O)NCc2ccc(-c3ccccc3)cc2)CC2(CCCCC2)OO1` (stereo unspecified), the outcome with Heme was inactive. For the same compound, the EC50 in the experiment with Plasmodium falciparum [1] was 77 nM; in the experiment on Plasmodium falciparum [2] it was 100 nM.

As to `CC(C)(N)CNC(=O)CC1(C)CC2(CCCCC2)OO1` (stereo unspecified), the outcome with Heme was inactive. The EC50 was found to be 108 nM in the experiment on Plasmodium falciparum [1] and 61 nM in the experiment with Plasmodium falciparum [2].

With `CC(C)(CO)CC1(C)C[C@]2(CC[C@H](C)CC2)OO1` (stereo partly specified), the EC50 came out at 897 nM with Plasmodium falciparum [1] and 332 nM in the experiment with Plasmodium falciparum [2].

As to `CC(=O)OCCC1(C)CC2(CCCC(C)C2)OO1` (mixture of isomers), the result with Heme was inactive. Also, the EC50 in the experiment on Plasmodium falciparum [1] came to 114 nM; in the experiment on Plasmodium falciparum [2] it was 109 nM.

For `O=C(CN1CCC2(CCCCC2)C1)NCCNc1ccnc2cc(Cl)ccc12`, the EC50 in the experiment with Plasmodium falciparum [3] was found to be 53 nM; in the experiment on Plasmodium falciparum [4], 80 nM; in the experiment on Plasmodium falciparum [5], 91 nM; in the experiment on Plasmodium falciparum [1] it was 78 nM; in the experiment with Plasmodium falciparum [2], 69 nM. Moreover, the result in the experiment on Heme was inactive.

As to `CC1(CCOCc2ccccc2)CC2(CCCCC2)OO1` (stereo unspecified), the result in the experiment on Heme was inactive. Besides, the EC50 with Plasmodium falciparum [1] is 146 nM; in the experiment with Plasmodium falciparum [2], 141 nM.
